From patent US7998987B2, “Inhibitors of c-Met and uses thereof” (Vertex Pharmaceuticals Incorporated, priority 2005, dated 2011)

Target: c-Met (Homo sapiens, UniProt P08581)
Experiment: Ki determination for the inhibition of c-Met kinase activity (standard coupled enzyme system)
Assay type: biochemical
Details: coupled enzyme system, 200 μM ATP, 10 μM polyGluTyr, 80 nM c-Met, 30° C.; read-out: c-Met Ki
In short: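 The kinase (80 nM) turned over polyGluTyr (10 μM) with ATP (200 μM, added to start), coupled to NADH oxidation via pyruvate kinase/lactate dehydrogenase at pH 7.5 HEPES, 1.5% DMSO.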

Chain of c-Met (P08581 25-1390): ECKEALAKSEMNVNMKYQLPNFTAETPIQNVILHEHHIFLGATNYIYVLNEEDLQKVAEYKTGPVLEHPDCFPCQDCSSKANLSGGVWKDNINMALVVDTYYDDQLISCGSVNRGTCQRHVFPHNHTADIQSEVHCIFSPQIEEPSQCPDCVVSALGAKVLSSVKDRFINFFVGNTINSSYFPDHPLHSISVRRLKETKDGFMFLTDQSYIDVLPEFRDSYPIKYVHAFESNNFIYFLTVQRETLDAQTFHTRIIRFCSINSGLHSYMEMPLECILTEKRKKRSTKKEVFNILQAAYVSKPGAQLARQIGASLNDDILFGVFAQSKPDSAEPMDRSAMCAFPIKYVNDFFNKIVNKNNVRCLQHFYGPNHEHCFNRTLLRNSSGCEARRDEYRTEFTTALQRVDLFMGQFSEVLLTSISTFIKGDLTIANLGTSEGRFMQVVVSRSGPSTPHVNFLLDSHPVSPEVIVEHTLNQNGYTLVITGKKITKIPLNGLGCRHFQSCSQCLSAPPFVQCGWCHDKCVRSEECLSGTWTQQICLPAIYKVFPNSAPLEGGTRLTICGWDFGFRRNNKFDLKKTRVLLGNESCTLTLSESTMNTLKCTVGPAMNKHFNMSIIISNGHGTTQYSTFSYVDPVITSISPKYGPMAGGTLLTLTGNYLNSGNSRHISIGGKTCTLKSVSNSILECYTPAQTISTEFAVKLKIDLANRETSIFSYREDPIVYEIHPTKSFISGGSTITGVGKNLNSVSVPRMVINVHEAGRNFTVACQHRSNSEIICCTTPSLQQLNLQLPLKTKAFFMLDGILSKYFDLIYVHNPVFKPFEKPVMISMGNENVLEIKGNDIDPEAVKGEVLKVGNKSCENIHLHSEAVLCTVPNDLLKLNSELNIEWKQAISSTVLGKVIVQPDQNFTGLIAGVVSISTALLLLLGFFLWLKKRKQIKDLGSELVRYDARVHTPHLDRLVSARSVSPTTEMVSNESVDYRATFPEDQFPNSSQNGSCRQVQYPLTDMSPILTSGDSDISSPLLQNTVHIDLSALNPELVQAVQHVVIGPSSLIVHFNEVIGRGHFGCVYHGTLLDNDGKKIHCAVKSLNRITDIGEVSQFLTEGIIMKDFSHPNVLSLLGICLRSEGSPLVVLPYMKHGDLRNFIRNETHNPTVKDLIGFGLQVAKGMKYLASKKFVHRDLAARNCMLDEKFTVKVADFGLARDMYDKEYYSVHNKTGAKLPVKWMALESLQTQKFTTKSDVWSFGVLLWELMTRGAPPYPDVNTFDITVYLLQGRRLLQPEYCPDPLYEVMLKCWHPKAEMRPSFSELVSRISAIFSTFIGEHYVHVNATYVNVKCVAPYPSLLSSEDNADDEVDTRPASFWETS

Row | Compound | Ki [µM]
1 | COc1cccc(Nc2ccc3nnc(Cc4ccc5c(c4)OCO5)n3n2)c1 [Compound 243] | 0.1 to 2
2 | COc1cccc(Nc2ccc3nnc(Cc4ccncc4)n3n2)c1 [Compound 244] | > 2
3 | Oc1ccc(Cc2nnc3ccc(Nc4cc(Cl)cc(Cl)c4)nn23)cc1F [Compound 245] | < 0.1
4 | Clc1cc(Cl)cc(Nc2ccc3nnc(Cc4ccc5c(c4)OCO5)n3n2)c1 [Compound 246] | 0.1 to 2
5 | Clc1cc(Cl)cc(Nc2ccc3nnc(Cc4ccncc4)n3n2)c1 [Compound 247] | 0.1 to 2
6 | Cc1cc(C)cc(Nc2ccc3nnc(Cc4ccc5c(c4)OCO5)n3n2)c1 [Compound 248] | 0.1 to 2
7 | Cc1cc(C)cc(Nc2ccc3nnc(Cc4ccncc4)n3n2)c1 [Compound 249] | > 2
8 | Oc1ccc(Cc2nnc3ccc(Nc4cc(F)cc(F)c4)nn23)cc1 [Compound 250] | < 0.1
9 | Oc1ccc(Cc2nnc3ccc(Nc4cc(F)cc(F)c4)nn23)cc1Cl [Compound 251] | < 0.1
10 | COc1ccc(Cc2nnc3ccc(Nc4cc(F)cc(F)c4)nn23)cc1 [Compound 252] | < 0.1
11 | Fc1cc(F)cc(Nc2ccc3nnc(Cc4ccc5c(c4)OCO5)n3n2)c1 [Compound 253] | < 0.1
12 | Fc1cc(F)cc(Nc2ccc3nnc(Cc4ccncc4)n3n2)c1 [Compound 254] | 0.1 to 2
13 | CC(O)c1cccc(Nc2ccc3nnc(Cc4ccc(O)cc4)n3n2)c1 (stereo not shown) [Compound 255] | < 0.1
14 | CC(O)c1cccc(Nc2ccc3nnc(Cc4ccc(O)c(F)c4)n3n2)c1 (stereo not shown) [Compound 256] | 0.1 to 2
15 | COc1ccc(Cc2nnc3ccc(Nc4cccc(C(C)O)c4)nn23)cc1 (stereo not shown) [Compound 257] | 0.1 to 2
16 | CC(O)c1cccc(Nc2ccc3nnc(Cc4ccc5c(c4)OCO5)n3n2)c1 (stereo not shown) [Compound 258] | 0.1 to 2
17 | OCc1cccc(Nc2ccc3nnc(Cc4ccc(O)cc4)n3n2)c1 [Compound 259] | < 0.1
18 | OCc1cccc(Nc2ccc3nnc(Cc4ccc(O)c(F)c4)n3n2)c1 [Compound 260] | 0.1 to 2
19 | OCc1cccc(Nc2ccc3nnc(Cc4ccc(O)c(Cl)c4)n3n2)c1 [Compound 261] | 0.1 to 2

Row | Compound | Ki [µM]
20 | COc1ccc(Cc2nnc3ccc(Nc4cccc(CO)c4)nn23)cc1 [Compound 262] | 0.1 to 2
21 | OCc1cccc(Nc2ccc3nnc(Cc4ccc5c(c4)OCO5)n3n2)c1 [Compound 263] | 0.1 to 2
22 | OCCc1cccc(Nc2ccc3nnc(Cc4ccc(O)cc4)n3n2)c1 [Compound 264] | < 0.1
23 | OCCc1cccc(Nc2ccc3nnc(Cc4ccc(O)c(F)c4)n3n2)c1 [Compound 265] | 0.1 to 2
24 | COc1ccc(Cc2nnc3ccc(Nc4cccc(CCO)c4)nn23)cc1 [Compound 266] | 0.1 to 2
25 | COc1ccc(CNc2ccc3nnc(Cc4ccc(O)cc4)n3n2)cc1 [Compound 267] | 0.1 to 2
26 | Oc1ccc(Cc2nnc3ccc(NCc4cccc(F)c4)nn23)cc1 [Compound 268] | 0.1 to 2
27 | Oc1ccc(Cc2nnc3ccc(NC4CCCC4)nn23)cc1 [Compound 269] | 0.1 to 2
28 | CC1CCCC(Nc2ccc3nnc(Cc4ccc(O)cc4)n3n2)C1C (stereo not shown) [Compound 270] | 0.1 to 2
29 | CC1CCC(Nc2ccc3nnc(Cc4ccc(O)cc4)n3n2)CC1 (stereo not shown) [Compound 271] | 0.1 to 2
30 | Oc1ccc(Cc2nnc3ccc(N[C@H]4CC[C@H](O)CC4)nn23)cc1 [Compound 272] | 0.1 to 2
31 | Oc1ccc(Cc2nnc3ccc(NC4CCN(Cc5ccccc5)C4)nn23)cc1 (stereo not shown) [Compound 273] | 0.1 to 2
32 | Oc1ccc(Cc2nnc3ccc(N[C@@H]4CCOC4)nn23)cc1 [Compound 274] | 0.1 to 2
33 | Oc1ccc(Cc2nnc3ccc(NC4CC5CCC4C5)nn23)cc1 (stereo not shown) [Compound 275] | < 0.1
34 | CC(C)Nc1ccc2nnc(Cc3ccc(O)cc3)n2n1 [Compound 276] | 0.1 to 2
35 | Oc1ccc(Cc2nnc3ccc(NCc4ccccc4)nn23)cc1 [Compound 277] | 0.1 to 2
36 | CCC(C)Nc1ccc2nnc(Cc3ccc(O)cc3)n2n1 (stereo not shown) [Compound 278] | 0.1 to 2
37 | CC(C)CC(C)Nc1ccc2nnc(Cc3ccc(O)cc3)n2n1 (stereo not shown) [Compound 279] | 0.1 to 2
